Experimental data: US11834423B2, “Small molecule prolactin receptor inhibitors, pharmaceutical compositions and treatment methods using such inhibitors” (University of Cincinnati, priority 2016, dated 2023)

How the values were obtained:
[1] = tested on: MDA-MB-468 breast cancer cells; assay: PRL-induced invasion of breast cancer cells, Boyden chambers; type: cell-based; settings: 1 μM
Description: (§1) FIG. 1A. Bar graph showing inhibition of PRL-induced invasion of breast cancer cells by SMI-1 and SMI-6; FIG. 1B. Bar graph showing only minimal cytotoxicity at indicated concentrations.
(§2) Both SMI-1 and SMI-6 at 1 μM concentrations abrogated PRL-induced invasion of MDA-MB-468 breast cancer cells, using Boyden chambers (FIG. 1A).

[2] = tested on: MDA-MB-468 breast cancer cells; assay: LDH cytotoxicity assay; type: cell-based; settings: especially at 10-fold higher doses
Description: as §1, §2

Jurkat human lymphocytes = assay: Autocrine PRL-dependent BrdU uptake (cell proliferation) by flow cytometry; type: cell-based; settings: for cell proliferation (BrdU uptake) driven by autocrine PRL: 1 μM SMI 24 hrs in 2% charcoal-stripped serum, then 1 nM PRL 24 hrs
Description: FIG. 2. Bar graph showing suppression of autocrine PRL-dependent BrdU uptake in Jurkat lymphocytes by […] of each SMI, as determined by flow cytometry; the top panel indicates percent of live cells.
To examine whether the SMIs can suppress cell proliferation that is driven by autocrine PRL, Jurkat human lymphocytes were utilized, which produce large amounts of autocrine PRL. Autocrine PRL in lymphocytes is well known to promote cell proliferation. The cells were incubated for 24 hrs in 2% charcoal-stripped serum (which is devoid on exogenous lactogenic hormones) with 1 μM of SMI-1 or SMI-6, and then with 1 nM PRL for 24 hrs. BrdU uptake was analyzed by flow cytometry.

[3] = tested on: postoperative thermal pain; assay: Thermal nociception (heat hyperalgesia, paw withdrawal latency) after hind paw surgery; type: in vivo; settings: female mice
Description: FIG. 3. […] Female mice were operated on the right hind paw. One day after surgery, 5 μg SMI-6 was applied either peripherally or centrally/spinally (5 μg or 25 μg) and mice were subjected to thermal nociception or mechanical allodynia (increased sensitization to tactile stimuli). […] SMI-6 at the 25 μg dose was effective in alleviating thermal pain by as much as 75%.

[4] = tested on: postoperative mechanical pain; assay: Mechanical allodynia (anesthesiometer, withdrawal threshold) after hind paw surgery; type: in vivo; settings: female mice, one day after surgery; 5 μg peripherally, 5 μg or 25 μg spinally
Description: FIG. 4. […] BL—baseline: POP—postoperative pain; SMI-6 was applied either peripherally ([…]), or spinally ([…]); each value is a mean±SME of 6 mice/treatment. Female mice were operated on the right hind paw. One day after surgery, 5 μg SMI-6 was applied either peripherally or centrally/spinally (5 μg or 25 μg) and mice were subjected to thermal nociception or mechanical allodynia (increased sensitization to tactile stimuli). […] SMI-6 at the 25 μg dose was effective in alleviating thermal pain by as much as 75%. For evaluating allodynia, an anesthesiometer was used, which applied a constant ramp of increasing mechanical pressure to the injured paw. […] was measured in grams.

Molecule: Cn1nc(Nc2ccc(Cl)cc2O)c(N)nc1=O [SMI-1]
- PRL-induced invasion of MDA-MB-468 breast cancer cells [1]: abrogated
- toxicity in LDH cytotoxicity assay [2]: minimal toxicity
- cell proliferation (BrdU uptake) driven by autocrine PRL (Jurkat human lymphocytes): completely blocked

Molecule: CCN(CC)c1ccc(/C=N/NC(=O)c2c(Cl)cnn2C)c(O)c1 [SMI-6]
- PRL-induced invasion of MDA-MB-468 breast cancer cells [1]: abrogated
- toxicity in LDH cytotoxicity assay [2]: minimal toxicity
- cell proliferation (BrdU uptake) driven by autocrine PRL (Jurkat human lymphocytes): completely blocked
- alleviation of thermal pain ([3]; 25 μg dose): ≤ 75%
- alleviation of thermal pain (leg withdrawal latency), dose dependence ([3]; one day after surgery, 5 μg peripherally, 5 μg or 25 μg spinally): dose-dependent alleviation
- abrogation of mechanical pain (allodynia, withdrawal threshold) [4]: equally as effective

B1: PRL: 25 kDa hormone produced by the anterior pituitary (protein, UniProt P01236 29-227, looked up)
Prolactin: LPICPGGAARCQVTLRDLFDRAVVLSHYIHNLSSEMFSEFDKRYTHGRGFITKAINSCHTSSLATPEDKEQAQQMNQKDFLSLIVSILRSWNEPLYHLVTEVRGMQEAPEAILSKAVEIEEQTKRLLEGMELIVSQVHPETKENEIYPVWSGLPSLQMADEESRLSAYYNLLHCLRRDSHKIDNYLKLLKCRIIHNNNC
- effect of added PRL on BrdU uptake (Jurkat human lymphocytes; 1 nM PRL for 24 hrs): no effect
